# Data taken from PMC11825364, “Development of supramolecular anticoagulants with on-demand reversibility” (Nature Biotechnology, 2024).
# Assays:
# [1] = molecular target: T1, human α-thrombin (Homo sapiens, UniProt P00734); experiment: Michaelis Menten determination of KM of the fluorogenic substrate; format: biochemical; settings: without inhibitor, variation of [substrate]; R2 0.98
# T1 construct: human α-thrombin (Haematologic Technologies, HCT0020); purchased Haematologic Technologies HCT0020
# Procedure: Inhibition assays were performed using 0.2 nM enzyme, 20 μM substrate and increasing concentrations of inhibitor. The concentration of each inhibitor variant was determined using the absorbance of the PNA at 260 nm, as measured by NanoDrop. All reactions were performed at 37 °C in 50 mM Tris-HCl (pH 8.0), 50 mM NaCl and 1 mg ml^–1 bovine serum albumin in black 96-well microtiter plates (Thermo Fisher Scientific, 267342). Reaction progress was monitored by excitation at 339 nm and emission at 439 nm using a SpectraMax or Tecan Spark Plate Reader. Dose–response curves were used to determine the half-maximal inhibitory concentrations (IC50) using Prism 8.0 (GraphPad Software). For each inhibitor, the reactions were performed in triplicate, together with control reactions in the absence of enzyme. The initial velocity was calculated from the slope of the first 10 min of the assay. The curves were normalized to the well without inhibitor, where the initial velocity was set to 100% activity.
# MALDI-TOF; m/z found: 1202.95.
# 5. Thrombin Inhibition Assay
# Supplementary Figure 2: Thrombin Fluorogenic Assay
# The assay was performed as described in the Online Methods section.
# To convert IC50 values to Ki values, KM was determined: The assay described above was performed
# without inhibitor but with variation of [substrate]. The Michaelis Menten plot was obtained, and KM […]
# [2] = molecular target: Biotin-PNA (8-mer) ACAACTGC; experiment: SPR of PNA hybridization; format: binding; settings: 25 °C
# Procedure: SPR experiments were performed on a Biacore T200 instrument (GE Healthcare) at 25 °C in PBS-P+ buffer (10× stock; Cytiva Life Sciences, 28995084). Biotin-PNA (8-mer) was immobilized on a Streptavidin Series S sensor chip (Cytiva Life Sciences, 29104992). Before immobilization, the two channels were conditioned with 1 M NaCl in 50 mM NaOH. After stabilization, the compound (solution in PBS-P+) was flowed over one of the flow cells of the sensor chip at a concentration of 50 nM at a flow rate of 10 μl min^−1 with a response unit target of 500. Biotin-PNA (8-mer) reached a response unit value of 513.7. The system (not including the flow cells) was washed with 50% isopropanol in 1 M NaCl and 50 mM NaOH after each ligand injection. Kinetic measurements consisted of injections (association, 400 s; dissociation, 450 s; flow rate, 30 μl min^−1) of decreasing concentrations of PNA (4-, 6- and 8-mer; twofold cascade dilutions from the starting concentration). The chip was regenerated between cycles by one injection of regeneration solution (50 mM NaOH) for 10 s at a flow rate of 20 μl min^−1, followed by a 10-s stabilization period. Binding was measured as resonance units over time after blank subtraction, and the data were interpreted using Biacore T200 software (version 3.2). All measurements were performed in duplicate. The KD values were calculated based on steady-state affinity (1:1 binding).
# [3] = test system: C57BL/6J mice; experiment: Needle injury thrombosis model; format: in vivo, mouse; settings: A1–E1 5 mg per kg i.v. bolus twice 30 min apart, argatroban 2 mg per kg bolus + 12 mg per kg infusion over 60 min
# Procedure: For intravital mouse studies, male mice aged between 5 and 8 weeks old (15–20 g) were used.
# A clinical preparation of argatroban (Argatra/Exembol) was purchased from Mitsubishi Tanabe Pharma (Germany) and prepared in sterile saline with 25% (vol/vol) propylene glycol. Synthesized PNA inhibitors and PNA inhibitors + antidote solutions were prepared in sterile saline at a concentration of 2 mg ml^–1. C57BL/6J male mice (15–25 g) were anesthetized with ketamine (150 mg per kg (body weight)) and xylazine (15 mg per kg (body weight)), supplemented with oxygen and subjected to intravital needle injury, as previously described[42]. […] Following each injury, platelet thrombus formation and fibrin generation were monitored over a 15-min period using a confocal intravital microscopy platform (Nikon A1R-Si with an Apo LWD, ×40/1.15-NA water immersion objective; sequential excitation: 488-, 561- and 638-nm lasers; emission: 525/50-, 595/50- and 700/75-nm filters) and NIS Elements Advanced Research acquisition software. […]
# The signal obtained from DyLight 649-conjugated anti-GP1bβ for each xyz stack in a time series was thresholded to create a mask. The total signal (arbitrary units) from Alexa Fluor 546-conjugated anti-fibrin within this mask (that is, the fibrin signal within the thrombus) for each time point was then quantified using NIS Elements software (Nikon). […]
compound,measurement,setting,value
"phe-Pro-Arg-Coumarin [(S)-1-(D-phenylalanyl)-N-((S)-5-guanidino-1-((4-methyl-2-oxo-2H-chromen-7-yl)amino)-1-oxopentan-2-yl)pyrrolidine-2-carboxamide, substrate of the thrombin assay]",Km,[1],2420 nM
same,Vmax,[1],435.8
CAGT,Kd,[2],4.14 µM
CC1CNc2c(cccc2S(=O)(=O)N[C@@H](CCCNC(=N)N)C(=O)N2CC[C@@H](C)C[C@@H]2C(=O)O)C1 (stereo partly shown) [argatroban],fibrin formation and thrombus size,[3],significant decreases in fibrin formation and thrombus size
